Data taken from PubChem BioAssay AID1918936 (Molecular Pharmacology Branch, DTP, NCI, 2023).
pIC50: −log10 of the molar value. Where “and” joins values, the source holds several entries; their conditions need not be identical. Identical values can stand only once.

Tested on: 349418-098-R-PDC complex spheroid viability
Assay: Anticancer human tumor 349418-098-R-PDC patient-derived lung adenocarcinoma cell line growth inhibition
Conditions: for viability, T/C: stronger effect = lower value
Excerpt: Multicellular complex tumor spheroid response to LSD1 Inhibitor Iadademstat in combination with a variety of drugs and investigational agents in selected tumor cell lines
The current study was undertaken to assess response to LSD1 inhibitors in combination with standard-of-care drugs and investigational agents in solid tumor complex spheroid models as well as in the K-562 leukemia. Complex spheroids include a stromal component modeled by human endothelial cells (HUVEC) and fibroblasts modeled by human mesenchymal stem cells (MSCs). The concentration ranges selected for each drug and investigational agent were based upon clinically achievable concentrations if the clinical Cmax of the agent was known.
Compounds. The drugs and investigational agents used in this study are listed on Table 1. All of the agents used, including staurosporine (NSC755774) and gemcitabine (NSC613327), were obtained from the Developmental Therapeutics Program, NCI. FDA-approved anticancer drugs are available from the NCI at http://dtp.nci.nih.gov/branches/dscb/oncology_drugset_explanation.html. Drugs and investigational agents were >95% pure by proton nuclear magnetic resonance (NMR) and liquid chromatography/mass spectrometry (LC/MS). Stock solutions were prepared at 400x in DMSO, stored at -70 degrees C, and diluted in fresh medium prior to their use. The final concentration of DMSO in cell culture wells never exceeded 0.25% (v/v). The FDA-approved anticancer drug set is available from the Developmental Therapeutics Program at https://dtp.cancer.gov/organization/dscb/obtaining/available_plates.htm. All drugs and investigational agents were tested over a range starting from a high concentration at or near the clinical Cmax and decreasing in half-log increments. If the clinical Cmax for an agent had not been determined, the highest concentration tested was 10 microM.
Cell Lines. The patient-derived cancer cell (PDC) lines: 292921-168-R-J2-PDC, K24384-001-R-PDC, and 521955-158-R2-J5-PDC pancreatic carcinomas, 556581-035-R-J1 ovarian carcinoma, 324938-238-R-J1-PDC, 855422-203-R-J1-PDC and 883617-216-R-J1-PDC urothelial bladder carcinomas, 743489-274-T-PDC renal cell carcinoma, 138582-R-J1 Merkel cell tumor, K60290-347-R-J1 and K57222-313-R-J1-PDC glioblastomas, 653999-131-R-J2-PDC, LG0703-F948-PDC, and 349418-098-R-PDC non-small cell lung carcinomas, 885512-296-R-J2-PDC, 171881-019-R-J1-PDC breast carcinomas and 186277-243-T-J2-PDC and 233499-124-R-J2-PDC colon carcinomas were obtained from the NCI Patient-Derived Models Repository (PDMR, https://pdmr.cancer.gov). The established cell lines NCI/ADR-RES (RRID:CVCL_14520 and OVCAR-5 (RRID:CVCL_1628) ovarian carcinomas, 786-O (RRID:CVCL_1051) and A498 (RRID:CVCL_A498) renal cell carcinoma, NCI-H211 (ATCC, cat. CRL-5824; RRID:CVCL_1529), NCI-H196 (ATCC, cat. CRL-5823, RRID:CVCL_1509), SW 1271 (ATCC, cat. CRL-2177, RRID:CVCL_1716) and NCI-H1876 (ATCC, cat. CRL-5902, RRID:CVCL_1503) small cell lung carcinomas, MDA-MB-231 (RRID:CVCL_0062) and MDA-MB-468 (RRID:CVCL_0419)breast carcinomas (10-12). Pooled donor human umbilical vein endothelial cells (HUVEC, Lonza, cat. CC-2519) and human mesenchymal stem cells (hMSC, Lonza, cat. PT-2501) were purchased from Lonza (Walkersville, MD).
Cell Culture. All cells were maintained in an incubator at 37 degrees C and 5% CO2 with 95% humidity. The PDC lines were cultured according to standard operating procedures established by the NCI PDMR (https://pdmr.cancer.gov). Briefly all PDCs were thawed and cultured in Matrigel-coated flasks prepared with a working solution of 1X Ham's F-12 nutrient mix, without supplementation (Invitrogen, Waltham, MA, cat. 11765054), 100 U/mL penicillin-streptomycin (Invitrogen, cat. 15140122), and 2.5% Matrigel (Corning Inc., Corning, NY, cat. 354248) for the first three passages. […]
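Further: spheroids exposed to agents for seven days before readout.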
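Wherever viability, T/C is given: 100% = DMSO vehicle control wells.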

**Q.** How did the pIC50 (curve of first compound, second compound 0.1 µM) turn out when O=C(C=Cn1cnc(-c2cc(C(F)(F)F)cc(C(F)(F)F)c2)n1)NNc1cnccn1 + NC1CCC(NC2CC2c2ccccc2)CC1 was run?
**A.** > 8.50

**Q.** What about the pIC50 (curve of first compound, second compound 0.316 µM) of the same molecule?
**A.** > 8.50

**Q.** What about the pIC50 (curve of first compound, second compound 1 µM) of the same molecule?
**A.** > 8.50

**Q.** What about the pIC50 (curve of first compound, second compound 3.16 µM) of the same molecule?
**A.** > 8.50

**Q.** And the pIC50 (curve of first compound, second compound 10 µM)?
**A.** > 8.50

**Q.** And the viability, T/C (second compound 0.1 µM, first compound 0.00316 µM)?
**A.** 19.9%

**Q.** And the viability, T/C (second compound 0.1 µM, first compound 0.01 µM)?
**A.** 8.25%

**Q.** What about the viability, T/C (second compound 0.1 µM, first compound 0.0316 µM) of the same molecule?
**A.** 7.06%

**Q.** What about the viability, T/C (second compound 0.1 µM, first compound 0.1 µM) of the same molecule?
**A.** 4.2%

**Q.** And the viability, T/C (second compound 0.1 µM, first compound 0.316 µM)?
**A.** 3.1%

**Q.** And the viability, T/C (second compound 0.1 µM, first compound 1 µM)?
**A.** 2.53%

**Q.** What about the viability, T/C (second compound 0.316 µM, first compound 0.00316 µM) of the same molecule?
**A.** 16.7%

**Q.** What about the viability, T/C (second compound 0.316 µM, first compound 0.01 µM) of the same molecule?
**A.** 8.83%

**Q.** What about the viability, T/C (second compound 0.316 µM, first compound 0.0316 µM) of the same molecule?
**A.** 6.85%

**Q.** What about the viability, T/C (second compound 0.316 µM, first compound 0.1 µM) of the same molecule?
**A.** 4.29%

**Q.** What about the viability, T/C (second compound 0.316 µM, first compound 0.316 µM) of the same molecule?
**A.** 3.65%

**Q.** And the viability, T/C (second compound 0.316 µM, first compound 1 µM)?
**A.** 2.34%

**Q.** And the viability, T/C (second compound 1 µM, first compound 0.00316 µM)?
**A.** 22.8%

**Q.** And the viability, T/C (second compound 1 µM, first compound 0.01 µM)?
**A.** 8.34%

**Q.** And the viability, T/C (second compound 1 µM, first compound 0.0316 µM)?
**A.** 6.23%

**Q.** And the viability, T/C (second compound 1 µM, first compound 0.1 µM)?
**A.** 4.78%

**Q.** And the viability, T/C (second compound 1 µM, first compound 0.316 µM)?
**A.** 2.92%

**Q.** What about the viability, T/C (second compound 1 µM, first compound 1 µM) of the same molecule?
**A.** 2.31%

**Q.** What about the viability, T/C (second compound 3.16 µM, first compound 0.00316 µM) of the same molecule?
**A.** 21%

**Q.** What about the viability, T/C (second compound 3.16 µM, first compound 0.01 µM) of the same molecule?
**A.** 8.38%

**Q.** What about the viability, T/C (second compound 3.16 µM, first compound 0.0316 µM) of the same molecule?
**A.** 7.11%

**Q.** And the viability, T/C (second compound 3.16 µM, first compound 0.1 µM)?
**A.** 4.9%

**Q.** What about the viability, T/C (second compound 3.16 µM, first compound 0.316 µM) of the same molecule?
**A.** 3.12%

**Q.** And the viability, T/C (second compound 3.16 µM, first compound 1 µM)?
**A.** 2.6%

**Q.** What about the viability, T/C (second compound 10 µM, first compound 0.00316 µM) of the same molecule?
**A.** 17.9%

**Q.** And the viability, T/C (second compound 10 µM, first compound 0.01 µM)?
**A.** 9.32%

**Q.** And the viability, T/C (second compound 10 µM, first compound 0.0316 µM)?
**A.** 6.65%

**Q.** What about the viability, T/C (second compound 10 µM, first compound 0.1 µM) of the same molecule?
**A.** 4.32%

**Q.** What about the viability, T/C (second compound 10 µM, first compound 0.316 µM) of the same molecule?
**A.** 3.64%

**Q.** And the viability, T/C (second compound 10 µM, first compound 1 µM)?
**A.** 2.6%

**Q.** Which results are given for CC(C)c1c(-c2ccccc2)nc2c(C#N)c[nH]n2c1=O?
**A.** viability, T/C (compound 0.0316 µM): 97% and 109%; viability, T/C (compound 0.1 µM): 105% and 109%; viability, T/C (compound 0.316 µM): 101% and 104%; viability, T/C (compound 1 µM): 95.7% and 105%; viability, T/C (compound 3.16 µM): 97.2% and 95.9%; viability, T/C (compound 10 µM): 85.2% and 82.5%; pIC50 (curve of compound): < 5.00
